As a reminder, the fold induction is the ratio of treated to control signal.

One test deals with SMAD reporter. Description: Luciferase reporter assay, SMAD reporter. The following applies: Mus musculus, C2C12, 24 h, C2C12 cells expressing reporter and TAZ WT, differentiation medium 24 hours. Type of test: cell-based. How it is done:
The effect and its degree on the activity of a reporter, derived from a transcription factor that interacts with TAZ in C2C12 cells, were evaluated. Specifically, C2C12 cells expressing luciferase reporters corresponding to MyoD, TEAD, SMAD and Pax3 and C2C12 cells expressing these luciferase reporters and TAZ were cultured in a culture medium added with IBS008738 or DMSO at a concentration of 10 μM, respectively. […] The line and the error bar indicate the average value and the standard error, *p<0.05, **p<0.01, ns refers to not significant.
Transfection of the luciferase reporters was performed to the C2C12 cells after being plated at 12-well plates (1×10^5 cells/well) and cultured overnight. As the luciferase reporters, pGL3 Myo-184- (MyoD-), 8×GT-IIC-δ51LucII- (TEAD-), 9×CAGA-MLP-(SMAD-), and p(PRS-1/-4)3- (Pax3-) were transfected to the cells alone or with TAZ. These reporter vectors were from Keiji Miyazawa (Yamanashi University), Hiroshi Sasaki (Kumamoto University) and Hiroki Kurihara (The University of Tokyo).
Immediately after the transfection, DMSO or IBS008738 was added at a concentration of 10 μM, respectively. After growing the cells to confluence, the cells were transferred to a differentiation medium with DMSO or IBS008738, and cultured for 24 hours before the luciferase assay.

Another test concerns C2C12 cells. The test can be described thus: Evaluation of muscle differentiation markers by immunoblotting. Type of test: cell-based, mouse. The following applies: 10 μM. How it is done: (1) C2C12 cells were cultured for 24 hours under growth condition in a culture medium added with IBS008738 or DMSO at a concentration of 10 μM, and switched to differentiation condition and the cultivation was continued. The expression of markers indicating muscle differentiation was determined with a predetermined antibody, on the C2C12 cells immediately after the completion of cultivation under growth condition (0 h), 24 hours after switching to differentiation condition (24 h), 48 hours after switching to differentiation condition (48 h) and 72 hours after switching to differentiation condition (72 h), respectively. Tubulin was used as a loading control (FIG. 3A).
In general terms: A western blot detects proteins with antibodies after separation by electrophoresis.

The molecule `Cc1ccc(-n2cnc(/N=C/N3CCOCC3)c2C(=O)c2ccccc2)cc1` [exemplary compound 1] yielded a fold induction at 10 µM in the test on SMAD reporter of 2.09. Further, in the test on C2C12 cells, the “decrease in the expression of Pax7 compared with DMSO” value was “faster to decrease”; the “expression of MHC compared with DMSO” value was “became significant on days 3 and 4”; the “expression of TAZ” value was “became most significant on day 2”; the “expression of myogenin compared with DMSO” value is “became stronger after day 2”. In addition, the “expression of MyoD compared with DMSO” value in the test on C2C12 cells (day 1 after the addition) is “slightly higher”.

The values above are taken from patent US10653672B2, “Myogenesis promotor, muscle atrophy inhibitor, medical composition and TAZ activator” (National University Corporation Tokyo Medical and Dental …, priority 2014, dated 2020).
